According to PubChem BioAssay AID463203 (Broad Institute, 2010):
Active and inactive are the calls of the source.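 The calls were made as follows: active = more than half of replicate measurements showing over 20% loss of kinase signal relative to plate controls; inconclusive = some but at most half of replicates over 20% loss; inactive = no replicate over 20% signal loss.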

target: Glycogen synthase kinase-3 alpha (Homo sapiens) (UniProt P49840); experiment: concentration-response blocking of human GSK3A – biochemical, luminescence, cell-free homogeneous, retest, dose response (AID 463203); conditions: GSK-3 alpha enzyme, ADP-Glo luminescence, 60 min
Sequence (P49840 whole entry, looked up): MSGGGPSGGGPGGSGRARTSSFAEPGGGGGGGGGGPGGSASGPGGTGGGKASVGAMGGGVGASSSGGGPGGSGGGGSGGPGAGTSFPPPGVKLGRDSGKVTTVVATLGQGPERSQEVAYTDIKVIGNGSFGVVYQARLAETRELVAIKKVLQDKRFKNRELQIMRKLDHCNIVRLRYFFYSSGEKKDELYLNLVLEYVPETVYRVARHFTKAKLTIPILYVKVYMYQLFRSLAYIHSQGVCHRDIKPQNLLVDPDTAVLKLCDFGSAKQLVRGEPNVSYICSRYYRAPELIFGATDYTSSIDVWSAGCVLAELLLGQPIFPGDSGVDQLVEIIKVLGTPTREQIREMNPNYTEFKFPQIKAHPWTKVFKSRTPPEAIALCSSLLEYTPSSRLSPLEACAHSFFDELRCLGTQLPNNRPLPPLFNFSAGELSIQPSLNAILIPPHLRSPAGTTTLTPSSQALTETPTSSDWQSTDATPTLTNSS

Row | Structure (SMILES) | AC50
1 | Cc1ccnc(NC(=O)CCC(=O)N(CC(=O)NCc2ccc(F)cc2)CC2CCCO2)c1 (stereo not given) | 27.9 µM
2 | CS(=O)(=O)Nc1ccc(-c2cc(/C=C3\SC(N)=NC3=O)c[nH]c2=O)cc1 | 7.53 µM
3 | CCNC(=S)NNC(=O)c1cccs1 | > 30 µM (inactive)
4 | COCCCNc1nc(N)c([N+](=O)[O-])c(N2CCCCCC2)n1 | 9.97 µM
5 | Cc1cc(C(=O)CN(Cc2ccc(F)cc2)S(=O)(=O)c2ccc3c(c2)OCCO3)c(C)n1C | > 30 µM (inactive)
6 | O=S(=O)(O)c1ccc(N=Nc2ccccc2)cc1 | > 30 µM (inactive)
7 | COc1ccc(-c2cc(=O)oc3cc(O)ccc23)cc1 | 19.5 µM
8 | CC(=O)c1ccc(N=Nc2c(C)[nH][nH]c2=O)cc1 | 24.5 µM
9 | CC(C)OC(=O)c1nnn(-c2nonc2N)c1CN1CCCCCC1 | > 30 µM (inactive)
10 | Cc1ccc2oc(=O)c3cnn(CC(=O)N4CCc5ccccc5C4)c3c2c1 | > 30 µM (inactive)
11 | O/N=C1/CC/C(=N\O)c2nn(-c3ccccc3)nc21 | 25.3 µM
12 | COc1cc(CN2CCN(Cc3ccc([N+](=O)[O-])cc3)CC2)c([N+](=O)[O-])cc1OC | > 30 µM (inactive)
13 | CCC(Sc1ccc2nnc(-c3ccc(OC)c(OC)c3)n2n1)C(=O)O (stereo not given) | 29.2 µM
14 | CN(Cc1c(C(=O)N/N=C/c2ccccc2)nnn1-c1nonc1N)C1CCCCC1 | > 30 µM (inactive)
15 | O=[N+]([O-])c1cc(C(F)(F)F)ccc1NCCCN1CCOCC1 | > 30 µM (inactive)
16 | N#Cc1c(Nc2ccccc2)c(/C=N/NCCO)c[nH]c1=O | > 30 µM (inactive)
17 | O=C(Nc1cccc(C(=O)NC2CCCCC2)c1)c1ccccc1 | > 30 µM (inactive)
18 | O=C(CSc1ccccc1)Nc1ccc2c(c1)C(=O)NC2=O | 6.21 µM
19 | CN(C)Cc1c(C(=O)N/N=C/C=C/c2ccccc2)nnn1-c1nonc1N | 30 µM
20 | Cc1ccccc1OCCSc1nnc(C)n1-c1ccccc1 | > 30 µM (inactive)
21 | COc1ccccc1N=c1oc2cc(O)ccc2cc1C(N)=O | 4.68 µM
22 | NC(=O)c1cc(Br)cc2c3c([nH]c12)CCCC3 | 9.98 µM
23 | O=C(Nc1cccc(-c2cnc3ccccc3n2)c1)c1ccco1 | > 30 µM (inactive)
24 | O=C(COc1ccc(-n2cnnn2)cc1)Nc1ccc(F)c(F)c1F | > 30 µM (inactive)
25 | CN(C)S(=O)(=O)c1cccc(NC(=S)NN=C(Cc2ccccc2)Cc2ccccc2)c1 | > 30 µM (inactive)
26 | CCc1cc2c(NCc3ccco3)ncnc2s1 | > 30 µM (inactive)
27 | COc1ccccc1NC(=O)Nc1ccccc1Br | > 30 µM (inactive)

Row | Structure (SMILES) | AC50
28 | CCOC(=O)c1cnc2c(C)c(Cl)ccc2c1N1CCN(CC)CC1 | > 30 µM (inactive)
29 | C=CCOc1ccc(/C=N/n2cncn2)cc1OC | > 30 µM (inactive)
30 | CCCCn1c(O)c(C(C)=NCCCn2ccnc2)c(=O)[nH]c1=O | 11.1 µM
31 | CCOC(=O)c1cnc2ccc(OCC)cc2c1N1CCN(c2ccccc2OC)CC1 | 3.95 µM
32 | CCN1CCN(c2nc(Nc3ccc(C)c(C)c3)nc(N)c2[N+](=O)[O-])CC1 | > 30 µM (inactive)
33 | Cc1c(C(=O)N2CCOCC2)oc2ccc(S(=O)(=O)N3CCCC3)cc12 | > 30 µM (inactive)
34 | O=[N+]([O-])c1ccc(NCCCN2CCOCC2)nc1 | > 30 µM (inactive)
35 | O=C(Nc1ccccc1C(=O)N1CCOCC1)c1cccnc1 | > 30 µM (inactive)
36 | Cc1cc(NCc2ccco2)n2c(nc3ccccc32)c1C#N | > 30 µM (inactive)
37 | CCCCN(CCCC)S(=O)(=O)c1ccc2oc(C(=O)N3CCOCC3)c(C)c2c1 | > 30 µM (inactive)
38 | CN1CCCN(C(=O)CC(c2ccccc2)c2ccccc2)CC1 | > 30 µM (inactive)
39 | O=C(Nc1ncc([N+](=O)[O-])s1)c1ccc2c(c1)OCO2 | > 30 µM (inactive)
40 | C/C(=N\NC(=O)c1nnn(-c2nonc2N)c1-c1cccs1)c1cccc(O)c1 | 1.42 µM
41 | N#CCCn1cc(/C=N/O)c(-c2ccccc2)n1 | > 30 µM (inactive)
42 | COc1ccc(/C=C2\Oc3cc(OCC(=O)N4CC(O)C[C@H]4C(=O)O)ccc3C2=O)cc1OC (stereo not given in full) | > 30 µM (inactive)
43 | COC1(OC)N=C(N)C2(C#N)C(c3ccc4c(c3)OCO4)C12C#N (stereo not given) | 20.1 µM
44 | Cc1ccc(-c2cn3cccnc3n2)cc1NC(=O)c1c(-c2ccccc2Cl)noc1C | > 30 µM (inactive)
45 | Nc1nc(-c2ccccc2)cc(-c2ccccc2O)n1 | 25.4 µM
46 | Cc1ccc(-c2nnc(CSc3nnc(C)s3)o2)cc1 | > 30 µM (inactive)
47 | Cc1ccc(NC(=O)C2CCN(c3ncnc4sc(C)c(C)c34)CC2)cc1S(=O)(=O)N(C)C | > 30 µM (inactive)
48 | Cc1ccc(CSCCNC(=O)c2ccccc2)cc1 | > 30 µM (inactive)
49 | Cc1csc(NC(=O)C2CC(=O)N(c3ccc4c(c3)OCCO4)C2)n1 (stereo not given) | > 30 µM (inactive)
50 | COc1ccc(NC(=O)CN(C)C2CCCCC2)c([N+](=O)[O-])c1 | > 30 µM (inactive)
51 | Cc1nn(CCOc2ccccc2)c(=O)n1-c1ccccc1F | > 30 µM (inactive)
52 | COc1ccc2nc(NC(=O)CCc3cc(OC)c(OC)c(OC)c3)sc2c1 | 7.29 µM
53 | Brc1ccccc1/C=N/Nc1ccc2ccccc2n1 | > 30 µM (inactive)
54 | c1ccc2[nH]c(-c3ccncc3)nc2c1 | > 30 µM (inactive)

Row | Structure (SMILES) | AC50
55 | C#CCOCCOCCOCCNc1nc(N2CCN(C(=O)[C@H](CCC(=O)O)n3cc([C@@H](N)CCCCN)nn3)CC2)nc(N2CCN(C(=O)[C@H](CCC(=O)O)n3cc([C@@H](N)CCCCN)nn3)CC2)n1 | > 30 µM (inactive)
56 | CCOc1cc(-c2nc3c(C)cccn3c2NCC2CCCO2)ccc1O (stereo not given) | > 30 µM (inactive)
57 | O=c1[nH]ncn1-c1ccccc1 | > 30 µM (inactive)
58 | COc1ccc(C2c3sc(=O)[nH]c3SC3C4CCC(C4)C23)cc1OC (stereo not given) | 1.92 µM
59 | Cc1ccc(C(=O)N/C(=C/c2ccc(-c3cccc([N+](=O)[O-])c3)o2)C(=O)NC(C)C)cc1 | > 30 µM (inactive)
60 | CCC(CC)c1nnc(NC(=O)CCN2C(=O)c3ccccc3C2=O)s1 | > 30 µM (inactive)
61 | CCOC(=O)C1=C(c2ccccc2)Nc2ncnn2C1c1cccc(O)c1 (stereo not given) | 22.9 µM
62 | O=c1cc(-c2ccccc2)[nH]n1-c1ccc([N+](=O)[O-])cc1 | > 30 µM (inactive)
63 | Cc1nnc(SCC(=O)N(C(C)C)C(C)C)nc1C | > 30 µM (inactive)
64 | Cc1ccc(NC(=O)CSc2nnc(-c3ccncc3)o2)cc1 | > 30 µM (inactive)
65 | N#CCCn1cc(/C=N/O)c(-c2ccc(Cl)cc2)n1 | 21 µM
66 | NC(=O)c1cc([N+](=O)[O-])ccc1NCc1ccc(O)cc1 | 4.32 µM
67 | Fc1cccc(/C=N/Nc2nccnc2Cl)c1 | > 30 µM (inactive)
68 | COC(=O)c1ccc(CSc2n[nH]c(=S)s2)o1 | > 30 µM (inactive)
69 | COc1cc(/C=N/NC(=O)c2cccnc2)cc(Br)c1O | > 30 µM (inactive)
70 | O=C(CSc1cccs1)Nc1ccc(Cl)cc1 | > 30 µM (inactive)
71 | CN(c1ccccc1)c1nc(N)c([N+](=O)[O-])c(Nc2ccccc2F)n1 | > 30 µM (inactive)
72 | COC(=O)CSc1nc(NCC(C)C)nc(N2CCOCC2)n1 | > 30 µM (inactive)
73 | Cc1ccnc2ccc(SC(F)(F)F)cc12 | > 30 µM (inactive)
74 | COCC(=O)Nc1ccc([N+](=O)[O-])cc1OC | > 30 µM (inactive)
75 | COc1ccc(-c2noc(CSc3nc(N)c(-c4ccccc4)c(=O)[nH]3)n2)cc1 | > 30 µM (inactive)
76 | Cc1cc(C)c(NC(=O)C2CCCN2CCOC(=O)c2cccc([N+](=O)[O-])c2)c(C)c1 (stereo not given) | 13.6 µM
77 | NC(=O)c1cc([N+](=O)[O-])ccc1NCc1ccc(N)cc1 | 8.36 µM
78 | Oc1ccc2cccnc2c1 | > 30 µM (inactive)
79 | C/C(=N\NC(=O)c1nnn(-c2nonc2N)c1-c1cccs1)c1ccc(O)cc1 | 1.17 µM
80 | N#Cc1cc(Cl)c(NCC2CCCO2)cc1C#N (stereo not given) | > 30 µM (inactive)
81 | Nn1c(SCc2ccccc2F)nnc1-c1ccncc1 | > 30 µM (inactive)

Row | Structure (SMILES) | AC50
82 | Cc1cc(NC(=O)COC(=O)c2cc(S(=O)(=O)N3CCOCC3)ccc2N2CCCCC2)no1 | 10.1 µM
83 | N#CCSc1nnc(-c2ccc3c(c2)OCO3)o1 | 18.1 µM
84 | Nc1nnc(SCC(=O)Nc2sc3c(c2C(=O)c2ccccc2)CCCC3)s1 | > 30 µM (inactive)
85 | Cc1cc2oc(C(=O)NCCc3ccc(S(N)(=O)=O)cc3)c(C)c2cc1C | > 30 µM (inactive)
86 | COc1ccc(C(=O)NNC(=O)c2ccccn2)cc1 | 11.8 µM
87 | COc1ccc(OCC(=O)N/N=C/c2ccc(N(C)C)cc2)cc1 | > 30 µM (inactive)
88 | Cc1cccc(C)c1OCC(=O)Nc1ccc2c(c1)C(=O)NC2=O | 22.5 µM
89 | COc1ccc2nc(NC(=O)CN3C(=O)NC4(CCCC4)C3=O)sc2c1 | 26.3 µM
90 | COc1ccccc1NC(=O)CSc1nnc(-c2ccc(C)cc2)o1 | > 30 µM (inactive)
91 | Cc1oc2c(Cl)c(Cl)c(O)c(CN(C)C)c2c1C(=O)c1ccc(Cl)cc1 | 7.71 µM
92 | COCCOC(=O)c1[nH]c2c(c1C)C(=O)CC(c1cc(OC)c(OC)c(OC)c1)C2 (stereo not given) | > 30 µM (inactive)
93 | COc1cc(-c2[nH]nc3c2C(c2ccoc2)C(C#N)=C(N)O3)cc(OC)c1OC (stereo not given) | 26.1 µM
94 | CCCCCCCCCCOC(=O)Cn1c(COc2ccc(OC)cc2)[n+](C)c2ccccc21 | > 30 µM (inactive)
95 | CN(C)CCCNS(=O)(=O)c1ccc(NC2CCCCCC2)c([N+](=O)[O-])c1 | > 30 µM (inactive)
96 | O=C(NCCN1CCN(Cc2ccccc2Cl)CC1)Nc1ccccc1 | > 30 µM (inactive)
97 | COc1ccc(-c2nc3ncccn3c2Nc2ccccc2)cc1 | > 30 µM (inactive)
98 | CC1=Nn2c(nc3sc4c(c3c2=O)CCCC4)SC1 | > 30 µM (inactive)
99 | Cc1ccc(OCC(=O)NNC(=O)C(C)Sc2ncnc3sc(C)c(C)c23)cc1 (stereo not given) | > 30 µM (inactive)
100 | O=C(N/N=C/c1ccc(O)c(O)c1)NC12CC3CC(CC(C3)C1)C2 | > 30 µM (inactive)
101 | Cc1cc(C)c(OCC(O)CNC(C)(C)C)c(C)c1 (stereo not given) | > 30 µM (inactive)
102 | CC(C)(C)OC(=O)N1CCC(NC(=O)c2[nH]cnc2C(=O)Nc2ccccc2)CC1 | > 30 µM (inactive)
103 | COc1cccc(N/C(SC)=C(/C#N)C(N)=O)c1 | 30 µM
104 | COc1ccc2[nH]c(-c3ccc(C)cc3)cc(=O)c2c1 | > 30 µM (inactive)
105 | CC(C)(C)OC(=O)N1CCC(NC(=O)c2[nH]cnc2C(=O)Nc2ccc(Cl)cc2)CC1 | > 30 µM (inactive)
